# Assay results: publication PMC12454493, “Insight on novel sulfamoylphenyl pyrazole derivatives as anticancer carbonic anhydrase inhibitors” (Molecular Diversity, 2024)
# Experiments:
# hCA IX = hCA IX (Homo sapiens, UniProt Q16790); test: CA inhibitory activity, spectrophotometric p-NPA assay; type: biochemical; conditions: p-NPA substrate, pH 7.5, 25 °C, triplicate; read-out: IC50 (µM) ± SD hCA IX
# Method: The software used to calculate CA IC50 along with statistical analysis of the results is GraphPad Prism 9.00. Results were estimated by using one-way ANOVA and the Bonferroni’s multiple comparisons posthoc test was performed (P < 0.05) [46]
# Carbonic anhydrase inhibitory activity:
# The spectrophotometric assay was conducted in HEPES-Tris buffer, NaCl of pH 7.5 (20mM) at 25◦C. Each inhibitory well-consisted of 50 μL of assay buffer solution, 20 μL of hCA enzyme solution (20 ng/μL in Assay Buffer), and 50 μL of test compound in HPLC grade DMSO (maintain 10% of the final concentration). The mixture solution was
# Substrate p-nitrophenyl acetate (p-NPA) (0.7mM) was prepared in HPLC grade methanol and the reaction was started by adding 20 μL to a well in a 96-well-plate. The amount of product formed was measured for 30 min continuously at 1 min intervals at 400 nm in a 96-well-plate using xMARK microplate spectrophotometer, Bio-Rad (USA). The activity of the controlled compound was taken as 100%. All experiments were carried out in triplicates of each used concentration, and results are represented as a
# hCA XII = hCA XII (Homo sapiens, UniProt O43570); test: as above; type: biochemical; conditions: p-NPA substrate, pH 7.5, 25 °C, triplicate; read-out: IC50 (µM) ± SD hCA XII
# Chain of hCA XII (O43570 25-354): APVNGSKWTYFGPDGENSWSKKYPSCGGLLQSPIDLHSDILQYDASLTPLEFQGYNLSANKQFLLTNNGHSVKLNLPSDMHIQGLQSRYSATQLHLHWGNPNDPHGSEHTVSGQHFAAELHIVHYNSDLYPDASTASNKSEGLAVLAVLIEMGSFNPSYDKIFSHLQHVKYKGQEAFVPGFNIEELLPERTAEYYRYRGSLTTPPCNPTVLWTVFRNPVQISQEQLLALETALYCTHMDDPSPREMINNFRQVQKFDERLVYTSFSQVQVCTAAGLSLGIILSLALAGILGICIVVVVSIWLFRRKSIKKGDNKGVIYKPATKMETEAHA
# PC-3 = test: NCI-60 one-dose SRB screen (Prostate Cancer); type: cell-based; conditions: Homo sapiens, single dose 10 µM, 48 h, read-out: Growth inhibition percent (GI %)
# DU-145 = test: NCI-60 one-dose SRB screen (Prostate Cancer); type: cell-based; conditions: Homo sapiens, single dose 10 µM, 48 h, read-out: Growth inhibition percent (GI %)
# M14 = test: NCI-60 one-dose SRB screen (Melanoma); type: cell-based; conditions: Homo sapiens, single dose 10 µM, 48 h, read-out: Growth inhibition percent (GI %)
# UACC-62 = test: NCI-60 one-dose SRB screen (Melanoma); type: cell-based; conditions: Homo sapiens, single dose 10 µM, 48 h, read-out: Growth inhibition percent (GI %)
# LOX IMVI = test: NCI-60 one-dose SRB screen (Melanoma); type: cell-based; conditions: Homo sapiens, single dose 10 µM, 48 h, read-out: Growth inhibition percent (GI %)
# UACC-257 = test: NCI-60 one-dose SRB screen (Melanoma); type: cell-based; conditions: Homo sapiens, single dose 10 µM, 48 h, read-out: Growth inhibition percent (GI %)
# SK-MEL-2 = test: NCI-60 one-dose SRB screen (Melanoma); type: cell-based; conditions: Homo sapiens, single dose 10 µM, 48 h, read-out: Growth inhibition percent (GI %)
# SK-MEL-28 = test: NCI-60 one-dose SRB screen (Melanoma); type: cell-based; conditions: Homo sapiens, single dose 10 µM, 48 h, read-out: Growth inhibition percent (GI %)
# MDA-MB-435 = test: NCI-60 one-dose SRB screen (Melanoma); type: cell-based; conditions: Homo sapiens, single dose 10 µM, 48 h, read-out: Growth inhibition percent (GI %)
# MALME-3M = test: NCI-60 one-dose SRB screen (Melanoma); type: cell-based; conditions: Homo sapiens, single dose 10 µM, 48 h, read-out: Growth inhibition percent (GI %)
# SK-MEL-5 = test: NCI-60 one-dose SRB screen (Melanoma); type: cell-based; conditions: Homo sapiens, single dose 10 µM, 48 h, read-out: Growth inhibition percent (GI %)
# HCT-15 = test: NCI-60 one-dose SRB screen (Colon Cancer); type: cell-based; conditions: Homo sapiens, single dose 10 µM, 48 h, read-out: Growth inhibition percent (GI %)
# SW-620 = test: NCI-60 one-dose SRB screen (Colon Cancer); type: cell-based; conditions: Homo sapiens, single dose 10 µM, 48 h, read-out: Growth inhibition percent (GI %)
# HCC-2998 = test: NCI-60 one-dose SRB screen (Colon Cancer); type: cell-based; conditions: Homo sapiens, single dose 10 µM, 48 h, read-out: Growth inhibition percent (GI %)
# KM12 = test: NCI-60 one-dose SRB screen (Colon Cancer); type: cell-based; conditions: Homo sapiens, single dose 10 µM, 48 h, read-out: Growth inhibition percent (GI %)
# HCT-116 = test: NCI-60 one-dose SRB screen (Colon Cancer); type: cell-based; conditions: Homo sapiens, single dose 10 µM, 48 h, read-out: Growth inhibition percent (GI %)
# HT29 = test: NCI-60 one-dose SRB screen (Colon Cancer); type: cell-based; conditions: Homo sapiens, HT-29, single dose 10 µM, 48 h, read-out: Growth inhibition percent (GI %)
# COLO 205 = test: NCI-60 one-dose SRB screen (Colon Cancer); type: cell-based; conditions: Homo sapiens, single dose 10 µM, 48 h, read-out: Growth inhibition percent (GI %)
# 786-0 = test: NCI-60 one-dose SRB screen (Renal Cancer); type: cell-based; conditions: Homo sapiens, single dose 10 µM, 48 h, read-out: Growth inhibition percent (GI %)
# CAKI-1 = test: NCI-60 one-dose SRB screen (Renal Cancer); type: cell-based; conditions: Homo sapiens, single dose 10 µM, 48 h, read-out: Growth inhibition percent (GI %)
# SN12C = test: NCI-60 one-dose SRB screen (Renal Cancer); type: cell-based; conditions: Homo sapiens, single dose 10 µM, 48 h, read-out: Growth inhibition percent (GI %)
# RXF 393 = test: NCI-60 one-dose SRB screen (Renal Cancer); type: cell-based; conditions: Homo sapiens, single dose 10 µM, 48 h, read-out: Growth inhibition percent (GI %)
# UO-31 = test: NCI-60 one-dose SRB screen (Renal Cancer); type: cell-based; conditions: Homo sapiens, single dose 10 µM, 48 h, read-out: Growth inhibition percent (GI %)
# TK-10 = test: NCI-60 one-dose SRB screen (Renal Cancer); type: cell-based; conditions: Homo sapiens, single dose 10 µM, 48 h, read-out: Growth inhibition percent (GI %)
# A498 = test: NCI-60 one-dose SRB screen (Renal Cancer); type: cell-based; conditions: Homo sapiens, single dose 10 µM, 48 h, read-out: Growth inhibition percent (GI %)
# ACHN = test: NCI-60 one-dose SRB screen (Renal Cancer); type: cell-based; conditions: Homo sapiens, single dose 10 µM, 48 h, read-out: Growth inhibition percent (GI %)
# SR = test: NCI-60 one-dose SRB screen (Leukemia); type: cell-based; conditions: Homo sapiens, single dose 10 µM, 48 h, read-out: Growth inhibition percent (GI %)
# MOLT-4 = test: NCI-60 one-dose SRB screen (Leukemia); type: cell-based; conditions: Homo sapiens, single dose 10 µM, 48 h, read-out: Growth inhibition percent (GI %)
# RPMI-8226 = test: NCI-60 one-dose SRB screen (Leukemia); type: cell-based; conditions: Homo sapiens, single dose 10 µM, 48 h, read-out: Growth inhibition percent (GI %)
# K-562 = test: NCI-60 one-dose SRB screen (Leukemia); type: cell-based; conditions: Homo sapiens, K562, single dose 10 µM, 48 h, read-out: Growth inhibition percent (GI %)
# CCRF-CEM = test: NCI-60 one-dose SRB screen (Leukemia); type: cell-based; conditions: Homo sapiens, single dose 10 µM, 48 h, read-out: Growth inhibition percent (GI %)
# HL-60(TB) = test: NCI-60 one-dose SRB screen (Leukemia); type: cell-based; conditions: Homo sapiens, single dose 10 µM, 48 h, read-out: Growth inhibition percent (GI %)
# NCI/ADR-RES = test: NCI-60 one-dose SRB screen (Ovarian cancer); type: cell-based; conditions: Homo sapiens, single dose 10 µM, 48 h, read-out: Growth inhibition percent (GI %)
# IGROV1 = test: NCI-60 one-dose SRB screen (Ovarian cancer); type: cell-based; conditions: Homo sapiens, IGROV-1, single dose 10 µM, 48 h, read-out: Growth inhibition percent (GI %)
# OVCAR-3 = test: NCI-60 one-dose SRB screen (Ovarian cancer); type: cell-based; conditions: Homo sapiens, single dose 10 µM, 48 h, read-out: Growth inhibition percent (GI %)
# OVCAR-4 = test: NCI-60 one-dose SRB screen (Ovarian cancer); type: cell-based; conditions: Homo sapiens, single dose 10 µM, 48 h, read-out: Growth inhibition percent (GI %)
# OVCAR-8 = test: NCI-60 one-dose SRB screen (Ovarian cancer); type: cell-based; conditions: Homo sapiens, single dose 10 µM, 48 h, read-out: Growth inhibition percent (GI %)
# T-47D = test: NCI-60 one-dose SRB screen (Breast Cancer); type: cell-based; conditions: Homo sapiens, T47D, single dose 10 µM, 48 h, read-out: Growth inhibition percent (GI %)
# MDA-MB-468 = test: NCI-60 one-dose SRB screen (Breast Cancer); type: cell-based; conditions: Homo sapiens, single dose 10 µM, 48 h, read-out: Growth inhibition percent (GI %)
# MCF-7 = test: NCI-60 one-dose SRB screen (Breast Cancer); type: cell-based; conditions: Homo sapiens, MCF7, single dose 10 µM, 48 h, read-out: Growth inhibition percent (GI %)
# HS 578T = test: NCI-60 one-dose SRB screen (Breast Cancer); type: cell-based; conditions: Homo sapiens, single dose 10 µM, 48 h, read-out: Growth inhibition percent (GI %)
# BT-549 = test: NCI-60 one-dose SRB screen (Breast Cancer); type: cell-based; conditions: Homo sapiens, single dose 10 µM, 48 h, read-out: Growth inhibition percent (GI %)
# MDA-MB-231/ATCC = test: NCI-60 one-dose SRB screen (Breast Cancer); type: cell-based; conditions: Homo sapiens, single dose 10 µM, 48 h, read-out: Growth inhibition percent (GI %)
smiles,measurement,setting,value
"Cc1ccc(-c2nn(-c3ccc(S(N)(=O)=O)cc3)cc2C(=O)OCC(=O)Nc2nnc(S(N)(=O)=O)s2)cc1 [Compound 6b, 2-Oxo-2-[(5-sulfamoyl-1,3,4-thiadiazol-2-yl)amino] ethyl 1-(4-sulfamoylphenyl)-3-(p-tolyl)-1H-pyrazole-4-carboxylate]",IC50,hCA IX,0.339 ± 0.016 µM
same,IC50,hCA XII,1.7 ± 0.064 µM
same,inhibition at 10 µM,PC-3,7.13%
same,inhibition at 10 µM,DU-145,< 5%
same,inhibition at 10 µM,M14,< 5%
same,inhibition at 10 µM,UACC-62,14.4%
same,inhibition at 10 µM,LOX IMVI,12.1%
same,inhibition at 10 µM,UACC-257,< 5%
same,inhibition at 10 µM,SK-MEL-2,< 5%
same,inhibition at 10 µM,SK-MEL-28,< 5%
same,inhibition at 10 µM,MDA-MB-435,5.8%
same,inhibition at 10 µM,MALME-3M,10.9%
same,inhibition at 10 µM,SK-MEL-5,23%
same,inhibition at 10 µM,HCT-15,< 5%
same,inhibition at 10 µM,SW-620,< 5%
same,inhibition at 10 µM,HCC-2998,< 5%
same,inhibition at 10 µM,KM12,< 5%
same,inhibition at 10 µM,HCT-116,< 5%
same,inhibition at 10 µM,HT29,< 5%
same,inhibition at 10 µM,COLO 205,< 5%
same,inhibition at 10 µM,786-0,5.95%
same,inhibition at 10 µM,CAKI-1,28%
same,inhibition at 10 µM,SN12C,< 5%
same,inhibition at 10 µM,RXF 393,< 5%
same,inhibition at 10 µM,UO-31,10.8%
same,inhibition at 10 µM,TK-10,< 5%
same,inhibition at 10 µM,A498,7.37%
same,inhibition at 10 µM,ACHN,< 5%
same,inhibition at 10 µM,SR,15.7%
same,inhibition at 10 µM,MOLT-4,7.13%
same,inhibition at 10 µM,RPMI-8226,< 5%
same,inhibition at 10 µM,K-562,16.7%
same,inhibition at 10 µM,CCRF-CEM,6.03%
same,inhibition at 10 µM,HL-60(TB),< 5%
same,inhibition at 10 µM,NCI/ADR-RES,< 5%
same,inhibition at 10 µM,IGROV1,< 5%
same,inhibition at 10 µM,OVCAR-3,< 5%
same,inhibition at 10 µM,OVCAR-4,16%
same,inhibition at 10 µM,OVCAR-8,< 5%
same,inhibition at 10 µM,T-47D,< 5%
same,inhibition at 10 µM,MDA-MB-468,< 5%
same,inhibition at 10 µM,MCF-7,< 5%
same,inhibition at 10 µM,HS 578T,< 5%
same,inhibition at 10 µM,BT-549,< 5%
same,inhibition at 10 µM,MDA-MB-231/ATCC,8.63%
